The source of these data is US9133241B2, “Peptide compositions” (TARIX PHARMACEUTICALS LTD., priority 2013, dated 2015).

The subject of test [1] is human dermal microvascual endothelial cells (HDMEC). Briefly: BDNF production in HDMEC (BDNF Emax immunoassay of cell medium). It counts as cell-based. Particulars: for lowest dose stimulating BDNF expression: serum-free medium, 24 hours stimulation. How it is done:
(§1) Prior to stimulation, cells were washed twice with sterile PBS and then provided with the respective serum free cell medium. Cells were incubated in the serum-free medium for one hour and afterwards stimulated for 24 hours. For the dose response measurement the peptides were used in a range from 10^−14M to 10^−6M. For all other experiments, a 10^−7M concentration of the peptides was used, whereas isoproterenol and forskolin were used in a 10^−6M concentration. To maintain the concentration of the substances over a period of 24 hours they were added again into the medium after 12 hours. After stimulation, the concentration of BDNF was determined in the cell medium. The samples were either used directly or stored at −80° C.
(§2) For the determination of the concentration of BDNF the BDNF Emax® immunoassay system from Promega was used. At first, 96-well plates were coated with anti-BDNF overnight at 4° C. The next day, the plates were washed with TBST and incubated with blocking buffer for one hour at room temperature. Afterwards, the plate was washed again with TBST, and 100 μl of sample were applied per well. The plate was incubated on a shaker (˜400 rpm) for two hours at room temperature and later on washed five times with TBST. To each well 100 μl pAb anti-human BDNF were added, and the plate again incubated under continuous shaking for two hours at room temperature. Thereafter, the plate was washed five times with TBST, each well applied with 100 μl anti-IgY-HRP conjugate, and incubated at room temperature with shaking for one hour. Then, the plate was washed five times with TBST and incubated for 10 min at room temperature on a shaker with TMB One Solution. The reaction was stopped with 1 M hydrochloric acid and the absorbance was measured immediately at 450 nm. The BDNF concentration was determined from a standard curve.

Test [2] relates to human umbilical vein endothelial cells (HUVEC). Briefly: BDNF production in HUVEC (BDNF Emax immunoassay of cell medium). Particulars: for lowest dose stimulating significant BDNF expression: serum-free medium, 24 hours stimulation. Format: cell-based. How it is done:
as §1, §2

For test [3], the system named is transient middle cerebral artery occlusion (tMCAO) rat model of stroke. Kind of test: Forelimb placement test, tMCAO rat model of stroke. Format: in vivo. Particulars: 50 μg/kg SC once per day; for forelimb placement: first day of statistically significant improvement vs vehicle: tMCAO rats; for forelimb placement score improvement vs vehicle control / forelimb placement score improvement vs vehicle control, percent: by day 50. How it is done: (§3) For the purposes of this Example, Transient middle cerebral artery occlusion (tMCAO) procedure Day is defined as “Day 1” in this study. On the day of surgery anesthesia were induced with 4% isoflurane in a mixture of 70% N2O and 30% O2 and maintained with 1.5-2% isoflurane.
(§4) The tMCAO procedures were performed according to the method described R. Schmid-Elsaesser et al., A critical reevaluation of the intraluminal thread model of focal cerebral ischemia: evidence of inadvertent premature reperfusion and subarachnoid hemorrhage in rats by laser-doppler flowmetry, Stroke, 1998, 29(10): 2162-2170. Briefly, the right CCA (Common Carotid Artery) was exposed through a midline neck incision and carefully dissected free from surrounding nerves and fascia—from its bifurcation to the base of the skull. The occipital artery branches of the ECA (External Carotid Artery) were then isolated, and these branches were dissected and coagulated. The ECA was dissected further distally and coagulated along with the terminal lingual and maxillary artery branches, which was then divided. The ICA (Internal Carotid Artery) was isolated and carefully separated from the adjacent vagus nerve, and the pterygopalatine artery was ligated close to its origin with a 5-0 nylon suture (SMI, Belgium). Next, a 4-0 silk suture was tied loosely around the mobilized ECA stump, and a 4 cm length of 4-0 monofilament nylon suture (the tip of the suture was blunted by using a flame, and the suture was coated with polylysine, prior to insertion) was inserted through the proximal ECA into the ICA and thence into the circle of Willis, effectively occluding the MCA. The surgical wound was closed and the animals were returned to their cages to recover from anesthesia. One hour and a half after occlusion rats were re-anesthetized, the monofilament was withdrawn to allow reperfusion, the surgical wound was closed and rats were returned to their cages.
(§5) Animals were subjected to a modified Modified Neurological Rating Scale (mNRS) at 24 hours post reperfusion. Only animals with an overall score of ≧10 were included in this study. Animals were allocated into the test groups, according to the mNRS results on day 2, in order to have similar distribution of rats performance between groups. Starting on day 2, 24 hours post-surgery, each animal was administered one of 50 μg/kg of either TXA301 (SEQ ID NO: 20) or TXA302 (SEQ ID NO: 18) or […]; via subcutaneous (SC) administration.
The limb placing tests were divided into both forelimb and hindlimb tests. For the forelimb-placing test, the examiner held the rat close to a tabletop and scored the rat's ability to place the forelimb on the tabletop in response to whisker, visual, tactile, or proprioceptive stimulation. Similarly, for the hindlimb placing test, the examiner assessed the rat's ability to place the hindlimb on the tabletop in response to tactile and proprioceptive stimulation. Separate sub-scores were obtained for each mode of sensory input and added to give total scores (for the forelimb placing test: 0=normal, 12=maximally impaired; for the hindlimb placing test: 0=normal; 6=maximally impaired). Scores were given in half-point increments as follows: whisker placing (0-2), visual placing-forward (0-2), -sideways (0-2); tactile placing-dorsal (0-2), -lateral (0-2); proprioceptive placing (0-2); for a total of 0-12.

Test [4] shares this test system. Briefly: Stepping test, tMCAO rat model of stroke. Particulars: 50 μg/kg SC once per day, tMCAO rats. It counts as in vivo. On the procedure:
as §3
(§6) The tMCAO procedures were performed according to the method described R. Schmid-Elsaesser et al., A critical reevaluation of the intraluminal thread model of focal cerebral ischemia: evidence of inadvertent premature reperfusion and subarachnoid hemorrhage in rats by laser-doppler flowmetry, Stroke, 1998, 29(10): 2162-2170. Briefly, the right CCA (Common Carotid Artery) was exposed through a midline neck incision and carefully dissected free from surrounding nerves and fascia—from its bifurcation to the base of the skull. The occipital artery branches of the ECA (External Carotid Artery) were then isolated, and these branches were dissected and coagulated. […]
Animals were tested for forelimb akinesia in a stepping test. The animal was held with its hind limbs fixed with one hand and the forelimb not monitored with the other, while the unrestrained fore-paw touches a table. The number of adjusting steps were counted while the animal was moved sideways along the table surface (85 cm in approximately five seconds), in the forehand & backhand direction for both forelimbs.

Test [5] has the same test system. Briefly: Modified Neurological Rating Scale (mNRS), tMCAO rat model of stroke. Particulars: 50 μg/kg SC once per day, tMCAO rats. It counts as in vivo. How it is done: as §3
as §6, with “coagulated. The ECA was dissected further distally and coagulated along with the terminal lingual and maxillary artery branches, which was then divided. The ICA (Internal Carotid Artery) was isolated and carefully separated from the adjacent vagus nerve, and the pterygopalatine artery was ligated close to its origin with a 5-0 nylon suture (SMI, Belgium).” for “coagulated.”

The test system is the same in test [6]. Kind of test: Cerebral blood flow and vessel diameter (laser Doppler), tMCAO rat model of stroke. It counts as in vivo. Particulars: day 50; 50 μg/kg SC. How it is done:
as §3, §4, §5
Evaluation of blood flow in the cerebral cortex and vessel constriction was carried out using a Flow-R Laser Doppler system, in which intracranial blood flow and vessels diameter (constriction/dilation) was monitored. The Doppler procedure was carried out on Day 50 after the stroke and was performed while the animals were under isoflurane anesthesia.

For test [7] the test system is unchanged. Briefly: Body swing test, tMCAO rat model of stroke. It counts as in vivo. Particulars: 50 μg/kg SC once per day, tMCAO rats. On the procedure: as §3, §6
The rat was held approximately one inch from the base of its tail. […] A swing was recorded whenever the rat moved its head out of the vertical axis to either side. Before attempting another swing, the rat had to return to the vertical position for the next swing to be counted. Twenty (20) total swings were counted. […] Body swing scores are expressed as a percentage of […] over total swings.

Another test deals with HUVEC cells. Briefly: cAMP production in HUVEC (cAMP enzyme immunoassay of cell lysate). Particulars: 15 minutes stimulation. It counts as cell-based, human. How it is done:
Prior to stimulation with Ala^1-Arg^2-Val^3-Ser^4-Ile^5-His^6-Cys^7 (SEQ ID NO: 18), HUVEC cells were washed twice with PBS and then incubated for 1 hour in serum-free medium. In this Example, in order to generate a dose response curve, the peptide concentration ranged from 1×10^−13-1×10^−6 M. After 15 minutes stimulation, the medium containing peptide was removed and the cells were lysed (0.1M HCl, 0.1% Triton X-100). The clear lysate was collected, and 25 μl were used for determining the protein concentration (Pierce BCA Protein Assay Kit, Thermo Scientific, Rockford, USA) and the remaining fraction stored at −80° C. for later analysis.
cAMP concentration in cell lysates was determined using cAMP Enzyme Immunoassay Kit, Direct from Sigma-Aldrich (St. Louis, Mo., USA). Briefly, wells of 96-well plate (Goat Anti-Rabbit IgG pre-coated) were neutralized with 50 μl of Neutralizing Reagent. Next, 100 μl of acetylated cyclic AMP standard or cell lysate was added, followed by 50 μl of blue cAMP-Alkaline Phosphatase Conjugate and 50 μl of yellow EIA Rabbit Anti-cAMP antibody. The plate was then incubated on a shaker (˜500 rpm) for two hours at room temperature. […] The enzymatic reaction was stopped by adding 50 μl of Stop Solution, and the absorbance at 405 nm was measured immediately. The cAMP concentration was determined from non-linear standard curve using GraphPad Prism 5.0 software. […]
A general note: cAMP levels reflect the balance of adenylyl cyclase and phosphodiesterase activity.

“TXA301: angiotensin (1-7) peptide coded TXA301 (SEQ ID NO: 20); sequence not printed in the text (DRVSIHC)”: the “BDNF expression at doses 100,000 times higher than 1×10^−11” value in test [1] (compared with 1×10^−11 M) was “statistically similar levels of expression”. For the same substance, the “lowest dose stimulating BDNF expression” value in test [1] is 0.01 nM. Besides, the “BDNF expression at doses 100,000 times higher than 1×10^−11” value in test [2] (compared with 1×10^−11 M) is reported as “statistically similar levels of expression”. Further, the “lowest dose stimulating significant BDNF expression” value in test [2] was 0.01 nM. For the same substance, in test [3], the “forelimb placement: first day of statistically significant improvement vs vehicle” value was determined as 22 days; the “forelimb placement score improvement vs vehicle control” value is 4 points; the “forelimb placement score improvement vs vehicle control, percent” value is ~44%. The “stepping test: first day of statistically significant effect vs vehicle” value in test [4] came out at 15 days. The “mNRS: first day of significant increase in performance vs vehicle” value in test [5] worked out at 15 days. Further, in test [6], the “blood flow ratio vs vehicle” value was “statistically significant improvement” and the “vessel diameter vs vehicle” value is on record as “statistically significant improvement”. The “body swing test: first day of statistically significant improvement vs vehicle” value in test [7] came out at 22 days.
For “Asp^1-Arg^2-Val^3-Tyr^4-Ile^5-His^6-Pro^7 (DRVYIHP) [Ang (1-7), naturally-occurring Ang-(1-7), reference compound]”, the “lowest dose stimulating BDNF expression” value in test [1] came to 10 nM. Besides, the “lowest dose stimulating significant BDNF expression” value in test [2] turned out to be 10 nM.
“Ala^1-Arg^2-Val^3-Ser^4-Ile^5-His^6-Cys^7 (ARVSIHC) [TXA302]”: in the test with HUVEC cells, the “dose of observed maximum cAMP” value is “approximately 1×10^−9 M” and the “lowest dose giving significant increase in cAMP” value came out at 10 pM. In addition, in test [3], the “forelimb placement: first day of statistically significant improvement vs vehicle” value was 15 days; the “forelimb placement score improvement vs vehicle control” value is “more than 7 points”; the “forelimb placement score improvement vs vehicle control, percent” value is reported as ~78%. Also, the “stepping test: first day of statistically significant effect vs vehicle” value in test [4] was 15 days. Further, the “mNRS: first day of significant increase in performance vs vehicle” value in test [5] turned out to be 15 days. Moreover, in test [6], the “blood flow compared to vehicle controls and to rats receiving TXA301” value is given as “markedly improved blood flow”; the “blood flow ratio vs vehicle” value is given as “statistically significant improvement”; the “vessel diameter compared to vehicle controls and to rats receiving TXA301” value is “increased vessel diameter”; the “vessel diameter vs vehicle” value is “statistically significant improvement”. The “body swing test: first day of statistically significant improvement vs vehicle” value in test [7] came to 15 days.
